Results as given in patent US20220009920A1 (GB005, Inc., priority 2020, published 2022).

Columns and labels:
Assay in all cases: Large panel kinase profiling
Type in all cases: biochemical
Details in all cases: 1 μM test article, 1 mM ATP
CAMK1D = CAMK1D (Homo sapiens, UniProt Q8IU85)
Method: (§1) Large panel kinase profiling was performed at AssayQuant Technologies, Inc. 260 Cedar Hill Street, Marlborough, Mass. 01752 using the PhosphoSens® CSox-Sensor platform using 1 μM test article concentration and 1 mM ATP concentration (www.assayquant.com). Reactions were run in Corning, half-area 96-well, white flat round bottom polystyrene NBS microplates (Cat. #3642) after sealing using optically-clear adhesive film (TopSealA-Plus plate seal, PerkinElmer), applied with either a roller or a paddle to eliminate evaporation and resulting drift. The standard total reaction volume was 50 μL. All experiments were ran at 30° C. to control for fluctuations in ambient temperature. Plates were read from the top in kinetic mode (readings taken every 1 min), monitoring fluorescence intensity with filters using Ex 360 nm and Em 485 nm and a band width of 40 and 20 nm, respectively, and a gain of 80. Data analysis was performed using either Graphpad Prism or Gene Data Screener software.

CDK6/D1 = molecular target: T1, CDK6/D1 (Homo sapiens, UniProt Q00534)
T1 construct: AssayQuant Technologies, Inc. (ran the panel)
Method: as §1

DYRK1A = molecular target: T2, DYRK1A (Homo sapiens, UniProt Q13627)
T2 construct: AssayQuant Technologies, Inc. (service laboratory)
Method: as §1

DYRK1B = molecular target: T3, DYRK1B (Homo sapiens, UniProt Q9Y463)
T3 construct: AssayQuant Technologies, Inc. (service laboratory)
Method: as §1

MAPKAPK3/MK3 = molecular target: T4, MAPKAPK3/MK3 (Homo sapiens, UniProt Q16644)
T4 construct: AssayQuant Technologies, Inc. (service provider)
Method: as §1

NTRK2/TRKB = molecular target: T5, NTRK2/TRKB (Homo sapiens, UniProt Q16620)
T5 construct: AssayQuant Technologies, Inc. (assay service)
Method: as §1

PASK = PASK (Homo sapiens, UniProt Q96RG2)
Method: as §1

PDK1 = molecular target: T6, PDK1 (Homo sapiens, UniProt O15530)
T6 sequence (O15530 1-556): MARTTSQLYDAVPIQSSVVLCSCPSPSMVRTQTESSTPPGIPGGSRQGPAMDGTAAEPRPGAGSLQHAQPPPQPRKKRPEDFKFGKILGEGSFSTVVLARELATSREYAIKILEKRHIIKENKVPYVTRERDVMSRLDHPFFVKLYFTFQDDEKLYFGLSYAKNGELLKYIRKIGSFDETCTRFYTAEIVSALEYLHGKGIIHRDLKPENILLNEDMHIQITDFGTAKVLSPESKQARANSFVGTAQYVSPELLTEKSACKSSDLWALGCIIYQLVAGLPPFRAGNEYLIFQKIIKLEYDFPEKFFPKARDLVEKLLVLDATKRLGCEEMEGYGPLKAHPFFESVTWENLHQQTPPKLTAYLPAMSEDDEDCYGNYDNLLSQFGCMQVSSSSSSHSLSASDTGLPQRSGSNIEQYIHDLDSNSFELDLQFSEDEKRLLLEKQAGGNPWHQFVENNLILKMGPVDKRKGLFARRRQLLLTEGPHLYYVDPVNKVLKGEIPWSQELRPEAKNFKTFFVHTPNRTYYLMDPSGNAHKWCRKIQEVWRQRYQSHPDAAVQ
Method: as §1

PIM3 = PIM3 (Homo sapiens, UniProt Q86V86)
Method: as §1

PRKCD/CPKCD = PRKCD/CPKCD (Homo sapiens, UniProt Q05655)
Method: as §1

PRKG1 = molecular target: T7, PRKG1 (Homo sapiens, UniProt Q13976)
T7 sequence (Q13976 1-671): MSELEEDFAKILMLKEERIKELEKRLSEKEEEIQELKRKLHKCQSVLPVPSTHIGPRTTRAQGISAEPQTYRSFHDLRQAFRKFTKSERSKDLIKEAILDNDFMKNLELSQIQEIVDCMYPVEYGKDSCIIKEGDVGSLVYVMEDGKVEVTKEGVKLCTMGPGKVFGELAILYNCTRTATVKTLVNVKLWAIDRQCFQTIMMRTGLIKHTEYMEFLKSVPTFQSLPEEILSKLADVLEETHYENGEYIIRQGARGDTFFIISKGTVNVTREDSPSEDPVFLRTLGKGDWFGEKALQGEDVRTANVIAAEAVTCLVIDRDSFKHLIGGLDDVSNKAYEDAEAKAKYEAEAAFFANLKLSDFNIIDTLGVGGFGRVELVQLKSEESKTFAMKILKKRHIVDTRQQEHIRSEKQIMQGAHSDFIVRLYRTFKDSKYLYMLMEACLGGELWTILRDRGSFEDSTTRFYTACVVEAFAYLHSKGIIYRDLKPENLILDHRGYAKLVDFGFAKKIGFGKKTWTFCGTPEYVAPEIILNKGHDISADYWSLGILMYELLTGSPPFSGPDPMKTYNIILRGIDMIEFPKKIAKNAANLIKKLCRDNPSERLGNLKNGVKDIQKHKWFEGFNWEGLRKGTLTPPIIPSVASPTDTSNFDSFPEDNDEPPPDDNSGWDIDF
Method: as §1

T5 sequence (Q16620 32-822): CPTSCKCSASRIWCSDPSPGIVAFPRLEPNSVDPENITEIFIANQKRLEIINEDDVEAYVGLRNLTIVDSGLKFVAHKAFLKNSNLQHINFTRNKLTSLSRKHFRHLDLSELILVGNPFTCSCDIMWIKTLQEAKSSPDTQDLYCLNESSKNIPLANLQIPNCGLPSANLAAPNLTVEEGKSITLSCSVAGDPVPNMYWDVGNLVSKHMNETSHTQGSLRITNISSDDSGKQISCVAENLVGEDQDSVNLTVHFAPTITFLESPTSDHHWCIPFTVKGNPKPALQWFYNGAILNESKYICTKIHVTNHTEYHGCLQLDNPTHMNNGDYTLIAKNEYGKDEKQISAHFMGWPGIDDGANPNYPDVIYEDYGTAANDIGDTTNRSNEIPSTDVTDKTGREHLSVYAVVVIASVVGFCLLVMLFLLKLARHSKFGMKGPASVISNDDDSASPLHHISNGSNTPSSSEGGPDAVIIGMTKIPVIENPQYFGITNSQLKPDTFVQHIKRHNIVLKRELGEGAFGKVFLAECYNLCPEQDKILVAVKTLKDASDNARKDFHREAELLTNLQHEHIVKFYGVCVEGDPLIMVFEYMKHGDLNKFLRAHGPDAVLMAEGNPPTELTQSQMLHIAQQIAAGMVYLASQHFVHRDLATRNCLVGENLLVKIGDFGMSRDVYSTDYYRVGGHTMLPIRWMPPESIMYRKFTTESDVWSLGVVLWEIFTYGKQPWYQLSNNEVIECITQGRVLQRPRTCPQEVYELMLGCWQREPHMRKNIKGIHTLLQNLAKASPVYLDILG
Chain of PASK (Q96RG2 whole entry): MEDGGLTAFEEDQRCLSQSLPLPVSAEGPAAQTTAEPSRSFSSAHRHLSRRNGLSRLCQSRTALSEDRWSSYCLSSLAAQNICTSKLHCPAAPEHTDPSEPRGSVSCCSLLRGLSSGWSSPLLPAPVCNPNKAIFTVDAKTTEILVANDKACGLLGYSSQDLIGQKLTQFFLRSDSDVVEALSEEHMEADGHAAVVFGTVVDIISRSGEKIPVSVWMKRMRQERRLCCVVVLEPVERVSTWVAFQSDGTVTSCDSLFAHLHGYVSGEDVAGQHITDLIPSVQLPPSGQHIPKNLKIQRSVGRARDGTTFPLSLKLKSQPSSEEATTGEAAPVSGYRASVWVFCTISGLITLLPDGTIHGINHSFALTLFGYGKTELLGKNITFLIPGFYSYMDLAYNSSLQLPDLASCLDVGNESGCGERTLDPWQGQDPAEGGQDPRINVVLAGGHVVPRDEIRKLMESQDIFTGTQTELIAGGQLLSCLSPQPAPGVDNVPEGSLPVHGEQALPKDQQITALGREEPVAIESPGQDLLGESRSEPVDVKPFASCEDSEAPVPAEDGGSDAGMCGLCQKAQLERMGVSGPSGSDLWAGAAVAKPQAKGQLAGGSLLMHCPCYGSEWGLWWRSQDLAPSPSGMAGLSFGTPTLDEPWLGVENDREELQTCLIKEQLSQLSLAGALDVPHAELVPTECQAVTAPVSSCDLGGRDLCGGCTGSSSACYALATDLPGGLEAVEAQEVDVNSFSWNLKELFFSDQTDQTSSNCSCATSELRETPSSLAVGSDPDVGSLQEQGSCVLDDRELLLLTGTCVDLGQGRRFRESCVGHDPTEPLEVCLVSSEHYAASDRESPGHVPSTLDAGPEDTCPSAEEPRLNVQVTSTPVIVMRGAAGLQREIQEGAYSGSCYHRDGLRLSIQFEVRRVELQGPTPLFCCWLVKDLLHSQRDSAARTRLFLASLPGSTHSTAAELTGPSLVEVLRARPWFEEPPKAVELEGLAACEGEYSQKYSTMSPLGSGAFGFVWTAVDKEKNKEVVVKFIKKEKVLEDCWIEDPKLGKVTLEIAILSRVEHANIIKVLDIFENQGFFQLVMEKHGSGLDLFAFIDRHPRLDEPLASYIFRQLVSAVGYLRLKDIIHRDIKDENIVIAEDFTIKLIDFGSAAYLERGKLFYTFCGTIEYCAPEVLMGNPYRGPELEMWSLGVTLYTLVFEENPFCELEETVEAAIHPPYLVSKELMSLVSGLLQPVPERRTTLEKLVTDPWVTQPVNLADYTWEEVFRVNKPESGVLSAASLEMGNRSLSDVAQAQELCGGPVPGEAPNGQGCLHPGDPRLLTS
Chain of CAMK1D (Q8IU85 whole entry): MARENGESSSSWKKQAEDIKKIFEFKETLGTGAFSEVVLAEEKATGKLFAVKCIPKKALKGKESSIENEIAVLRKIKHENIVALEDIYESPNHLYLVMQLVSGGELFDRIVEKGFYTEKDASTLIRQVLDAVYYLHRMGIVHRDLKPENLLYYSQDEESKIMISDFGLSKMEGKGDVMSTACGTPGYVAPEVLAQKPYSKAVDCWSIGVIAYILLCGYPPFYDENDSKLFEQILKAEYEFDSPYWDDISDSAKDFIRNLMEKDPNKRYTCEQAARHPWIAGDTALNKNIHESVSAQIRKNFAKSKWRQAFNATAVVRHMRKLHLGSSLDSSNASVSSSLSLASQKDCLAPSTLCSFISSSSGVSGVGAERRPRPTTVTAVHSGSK
Chain of PRKCD/CPKCD (Q05655 whole entry): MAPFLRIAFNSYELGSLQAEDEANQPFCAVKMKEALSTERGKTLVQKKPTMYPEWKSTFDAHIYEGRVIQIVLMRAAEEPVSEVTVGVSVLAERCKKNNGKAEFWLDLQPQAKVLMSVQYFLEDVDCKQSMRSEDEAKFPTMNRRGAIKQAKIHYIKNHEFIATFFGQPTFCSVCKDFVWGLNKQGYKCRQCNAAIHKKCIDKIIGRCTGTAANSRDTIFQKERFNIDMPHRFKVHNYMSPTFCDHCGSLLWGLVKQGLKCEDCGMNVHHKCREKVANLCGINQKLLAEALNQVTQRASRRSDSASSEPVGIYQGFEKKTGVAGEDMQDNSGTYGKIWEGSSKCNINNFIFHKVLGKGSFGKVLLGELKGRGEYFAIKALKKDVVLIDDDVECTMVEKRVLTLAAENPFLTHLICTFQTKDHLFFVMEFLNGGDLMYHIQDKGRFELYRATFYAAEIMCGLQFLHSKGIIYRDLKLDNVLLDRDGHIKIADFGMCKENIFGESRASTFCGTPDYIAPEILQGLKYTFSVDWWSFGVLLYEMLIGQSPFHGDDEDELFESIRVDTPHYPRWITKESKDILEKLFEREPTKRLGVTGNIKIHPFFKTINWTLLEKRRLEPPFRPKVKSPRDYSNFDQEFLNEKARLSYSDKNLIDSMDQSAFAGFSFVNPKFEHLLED
T4 sequence (Q16644 whole entry): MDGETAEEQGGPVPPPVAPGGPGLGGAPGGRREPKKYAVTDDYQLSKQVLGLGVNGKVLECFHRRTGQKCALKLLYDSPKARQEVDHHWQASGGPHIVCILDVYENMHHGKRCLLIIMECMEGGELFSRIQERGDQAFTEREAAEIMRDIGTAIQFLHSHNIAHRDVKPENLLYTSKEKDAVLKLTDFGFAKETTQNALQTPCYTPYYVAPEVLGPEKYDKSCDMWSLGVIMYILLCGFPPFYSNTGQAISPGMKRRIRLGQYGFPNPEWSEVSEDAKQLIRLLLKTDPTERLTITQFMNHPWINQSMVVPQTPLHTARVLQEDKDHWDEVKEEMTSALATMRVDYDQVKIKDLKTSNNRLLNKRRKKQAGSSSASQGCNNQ
T1 sequence (Q00534 whole entry, species assumed): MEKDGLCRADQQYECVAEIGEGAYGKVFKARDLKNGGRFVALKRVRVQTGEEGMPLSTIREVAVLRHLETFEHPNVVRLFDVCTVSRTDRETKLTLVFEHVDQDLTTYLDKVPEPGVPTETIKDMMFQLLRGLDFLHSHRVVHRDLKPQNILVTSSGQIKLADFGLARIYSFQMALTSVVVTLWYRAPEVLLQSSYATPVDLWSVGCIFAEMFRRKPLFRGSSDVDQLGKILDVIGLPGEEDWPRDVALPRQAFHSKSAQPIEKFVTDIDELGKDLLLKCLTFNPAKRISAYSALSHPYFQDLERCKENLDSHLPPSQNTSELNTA
T1 sequence (P24385 whole entry partner, species assumed): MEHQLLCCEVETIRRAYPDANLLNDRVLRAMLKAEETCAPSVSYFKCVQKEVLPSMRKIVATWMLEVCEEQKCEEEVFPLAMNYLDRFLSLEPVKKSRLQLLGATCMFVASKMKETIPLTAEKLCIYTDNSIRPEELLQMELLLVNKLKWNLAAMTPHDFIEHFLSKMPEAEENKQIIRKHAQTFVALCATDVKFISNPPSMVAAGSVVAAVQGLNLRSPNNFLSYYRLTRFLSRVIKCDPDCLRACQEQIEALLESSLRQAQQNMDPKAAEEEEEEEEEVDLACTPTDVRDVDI

## C=CC(=O)N1CCCC(c2c(F)cc(C(N)=O)c3[nH]c4c(c23)CCCCC4)C1 (single isomer, unassigned) [Compound 5-6]
CAMK1D
  inhibition at 1 µM: 19.6%
CDK6/D1
  inhibition at 1 µM: -5.8%
DYRK1A
  inhibition at 1 µM: 20.4%
DYRK1B
  inhibition at 1 µM: 16.1%
MAPKAPK3/MK3
  inhibition at 1 µM: 2.1%
NTRK2/TRKB
  inhibition at 1 µM: -20.9%
PASK
  inhibition at 1 µM: 1.8%
PDK1
  inhibition at 1 µM: 22.8%
PIM3
  inhibition at 1 µM: -14.1%
PRKCD/CPKCD
  inhibition at 1 µM: -42.2%
PRKG1
  inhibition at 1 µM: -2.8%

## C=CC(=O)N1CCC[C@@H](c2c(F)cc(C(N)=O)c3[nH]c4c(c23)CC2(CC4)CC2)C1 [Compound 6-2, (S)-5-(1-acryloylpiperidin-3-yl)-6-fluoro-1,2,4,9-tetrahydrospiro[carbazole-3,1′-cyclopropane]-8-carboxamide]
CAMK1D
  inhibition at 1 µM: 26.1%
CDK6/D1
  inhibition at 1 µM: -4.3%
DYRK1A
  inhibition at 1 µM: -2.2%
DYRK1B
  inhibition at 1 µM: -0.2%
MAPKAPK3/MK3
  inhibition at 1 µM: 1.5%
NTRK2/TRKB
  inhibition at 1 µM: 13.1%
PASK
  inhibition at 1 µM: -8%
PDK1
  inhibition at 1 µM: -7.8%
PIM3
  inhibition at 1 µM: -56.4%
PRKCD/CPKCD
  inhibition at 1 µM: -0.1%
PRKG1
  inhibition at 1 µM: 0%

## C=CC(=O)N1CCC[C@@H](c2c(F)cc(C(N)=O)c3[nH]c4c(c23)CCC4)C1 [Compound 10-2, (S)-8-(1-acryloylpiperidin-3-yl)-7-fluoro-1,2,3,4-tetrahydrocyclo-penta[b]indole-5-carboxamide]
CAMK1D
  inhibition at 1 µM: 10.5%
CDK6/D1
  inhibition at 1 µM: 12.8%
DYRK1A
  inhibition at 1 µM: 7.2%
DYRK1B
  inhibition at 1 µM: 6.6%
MAPKAPK3/MK3
  inhibition at 1 µM: -42.3%
NTRK2/TRKB
  inhibition at 1 µM: 19.7%
PASK
  inhibition at 1 µM: -8.5%
PDK1
  inhibition at 1 µM: -28.3%
PIM3
  inhibition at 1 µM: -16.8%
PRKCD/CPKCD
  inhibition at 1 µM: -0.6%
PRKG1
  inhibition at 1 µM: -5.8%
